Reference: patent US20050118202A1, “Solid compositions containing compounds unstable to oxygen and method for stabilization thereof” (priority 2001, published 2005)

Columns and labels:
Format in all cases: physicochemical
[1] = Experimental Example 1: residual ratio of bulk powders after storage; settings: bulk powder left at 40° C. and 75% RH in atmospheric air for 1 month
Protocol: After the bulk powder of the compound A and sodium ascorbate were left at 40° C. and 75% RH in atmospheric air for 1 month, their residual ratios were measured. As a result, the residual ratio of the compound A was 89.7% (W/W) and the residual ratio of sodium ascorbate was 99.0% (W/W).
The quantitative determination of the compound A was carried out by a HPLC method under the following conditions: • solvent: acetonitrile, • measurement wavelength: 287 nm, • column: CHIRALCEL OJ-R 4.6×150 mm (manufactured by Daicel Chemical Industries, Ltd. CPI Co.), • mobile phase: a mixed (16:9) solution of acetonitrile/10 mM ammonium acetate aqueous solution, • oven temperature: around 25° C.
The quantitative determination of sodium ascorbate was carried out by iodine titration method (solvent: metaphosphoric acid solution (1→50), indicator: starch reagent solution).

[2] = Experimental Example 2: stability of tablet vs bulk powder, 60° C. 2 weeks, HPLC
Protocol: The tablet obtained in Example 1 was put in a capped glass bottle and sealed. After storage at 60° C. for 2 weeks, the contents of the compound A and the related substances in the tablet were measured. Similarly, the bulk powder used for production of the tablet in Example 1 was stored under the same conditions and then the contents of the compound A and the related substances were measured. A comparison of stabilities between the formulated tablet and the bulk powder was made.
(§1) Measurement of the contents of the compound A and the related substances was carried out by a HPLC method under the following conditions: • solvent: water/acetonitrile mixed solution (4:6), • measurement wavelength: 287 nm, • column: XTerra MS C18 3.5 μm 4.6 mm×150 mm (manufactured by Waters Co., Ltd.), • mobile phase: a gradient of 10 mM ammonium acetate solution/acetonitrile mixed solution (4:3) and acetonitril/10 mM ammonium acetate solution mixed solution (9:1), and • oven temperature: around 40° C.

[3] = Experimental Example 3: stability of tablets with/without sodium ascorbate, 40° C. 1 month, HPLC
Protocol: as §1
The equilibrium moisture content (ERH) of each tablet was measured by the following method. The results were 3.0% and 3.4%, respectively.
These tablets were put in a capped glass bottle and sealed. After storage at 40° C. for 1 month, the contents of the compound A and the related substances were measured. The content of the compound A was measured in the same manner as the measurement method in Experimental Example 2, except that a water/acetonitrile mixed solution (4:6) was used as a solvent. The measurement of the related substances was carried out in the same manner as […].

[4] = initial: immediately after production
[5] = sealed capped glass bottle, after 2-week storage at 60° C.
[6] = content in the bulk used for Examples 5 and 7

COc1cc2c(cc1OC)CN(c1c(C)c(C)c3c(c1C)[C@@H](c1ccc(C)cc1)C(C)(C)O3)C2 [compound A, (R)-(+)-5,6-dimethoxy-2-[2,2,4,6,7-pentamethyl-3-(4-methylphenyl)-2,3-dihydro-1-benzofuran-5-yl]isoindoline]
residual ratio [1]: 89.7 % (W/W) | Related substance C [2, 4]: 0.24% | Related substance D [2, 4]: 0.32% | Related substance E [2, 4]: 0.13% | Related substance F [2, 4]: 3.01% | related substance A [2, 4]: 0.46% | residual ratio [2, 4]: 100.0% | Related substance C [2, 5]: 1.13% | Related substance D [2, 5]: 2.12% | Related substance E [2, 5]: 0.78% | Related substance F [2, 5]: 10.41% | related substance A [2, 5]: 1.74% | related substance B [2, 5]: 0.59% | residual ratio [2, 5]: 87.9% | Related substance C [3, 6]: 0.40% | Related substance D [3, 6]: 0.43% | Related substance E [3, 6]: 0.08% | related substance A [3, 6]: 0.31% | related substance B [3, 6]: 0.08% | related substance A ([3]; content in the bulk used, last item of the list A to F (second mention of A)): 2.69%

O=C1O[C@H]([C@@H](O)CO)C([O-])=C1O.[Na+] [sodium ascorbate]
residual ratio [1]: 99.0 % (W/W)
